Results published in the NIST ThermoML archive (doi:10.1016/j.jct.2015.12.028).
Numbers after ± are expanded uncertainties.

Settings: Liquid, light scattering

CCCCCC(=O)OCC [ethyl hexanoate]
speed of sound (291.92 K, 7170 kPa): 1273.2 ± 13 m/s
speed of sound (292.04 K, 8640 kPa): 1284 ± 13 m/s
speed of sound (292.14 K, 10010 kPa): 1290.3 ± 13 m/s
speed of sound (293.41 K, 5690 kPa): 1255 ± 13 m/s
speed of sound (293.44 K, 4180 kPa): 1247.7 ± 13 m/s
speed of sound (294.37 K): 1220.1 ± 12 m/s
speed of sound (294.64 K, 100 kPa): 1224.2 ± 12 m/s
speed of sound (294.64 K, 1100 kPa): 1230.1 ± 12 m/s
speed of sound (294.84 K, 2620 kPa): 1239 ± 12 m/s
speed of sound (301.5 K, 2670 kPa): 1205.7 ± 12 m/s
speed of sound (301.55 K, 1070 kPa): 1195.5 ± 12 m/s
speed of sound (301.55 K): 1191 ± 12 m/s
speed of sound (301.56 K, 4130 kPa): 1214.4 ± 12 m/s
speed of sound (301.58 K, 7090 kPa): 1236.9 ± 12 m/s
speed of sound (301.6 K, 5650 kPa): 1225.7 ± 12 m/s
speed of sound (301.63 K, 8670 kPa): 1245.9 ± 13 m/s
speed of sound (301.73 K, 10030 kPa): 1258.6 ± 13 m/s
speed of sound (302.55 K, 100 kPa): 1189.8 ± 12 m/s
speed of sound (313.14 K, 9980 kPa): 1220.5 ± 12 m/s
speed of sound (313.24 K, 4030 kPa): 1185 ± 12 m/s
speed of sound (313.24 K, 8510 kPa): 1215.6 ± 12 m/s
speed of sound (313.25 K, 7000 kPa): 1205.4 ± 12 m/s
speed of sound (313.26 K, 5550 kPa): 1196.2 ± 12 m/s
speed of sound (313.28 K, 2510 kPa): 1175.2 ± 12 m/s
speed of sound (313.3 K, 100 kPa): 1155.3 ± 12 m/s
speed of sound (313.3 K, 1020 kPa): 1160.8 ± 12 m/s
speed of sound (313.34 K): 1152.7 ± 12 m/s
speed of sound (323.18 K, 10000 kPa): 1187.7 ± 12 m/s
speed of sound (323.28 K, 8470 kPa): 1179.1 ± 12 m/s
speed of sound (323.31 K, 2480 kPa): 1142.4 ± 11 m/s
speed of sound (323.31 K, 4010 kPa): 1149.9 ± 12 m/s
speed of sound (323.33 K, 6950 kPa): 1170 ± 12 m/s
speed of sound (323.35 K, 5480 kPa): 1162 ± 12 m/s
speed of sound (323.36 K, 100 kPa): 1120.8 ± 11 m/s
speed of sound (323.36 K, 1020 kPa): 1128.5 ± 11 m/s
speed of sound (324.26 K): 1115.1 ± 11 m/s
speed of sound (332.94 K, 8560 kPa): 1145.7 ± 12 m/s
speed of sound (332.97 K, 6950 kPa): 1135.6 ± 11 m/s
speed of sound (332.97 K, 10050 kPa): 1156.4 ± 12 m/s
speed of sound (332.99 K, 100 kPa): 1086.3 ± 11 m/s
speed of sound (332.99 K, 1060 kPa): 1090.1 ± 11 m/s
speed of sound (333.01 K, 2560 kPa): 1105.9 ± 11 m/s
speed of sound (333.04 K, 5580 kPa): 1125.1 ± 11 m/s
speed of sound (333.07 K, 4030 kPa): 1115.9 ± 11 m/s
speed of sound (333.16 K): 1077.6 ± 11 m/s
speed of sound (342.65 K, 2510 kPa): 1072.2 ± 11 m/s
speed of sound (342.67 K, 100 kPa): 1051.7 ± 11 m/s
speed of sound (342.67 K, 1000 kPa): 1054.8 ± 11 m/s
speed of sound (342.69 K, 3940 kPa): 1082.2 ± 11 m/s
speed of sound (342.71 K, 5500 kPa): 1094.5 ± 11 m/s
speed of sound (342.72 K, 8500 kPa): 1109.7 ± 11 m/s
speed of sound (342.74 K, 7030 kPa): 1099.1 ± 11 m/s
speed of sound (342.82 K, 9990 kPa): 1124.8 ± 11 m/s
speed of sound (343.2 K): 1046.1 ± 10 m/s
speed of sound (352.33 K, 100 kPa): 1017.1 ± 10 m/s
speed of sound (352.33 K, 1100 kPa): 1023 ± 10 m/s
speed of sound (352.33 K, 2540 kPa): 1038.4 ± 10 m/s
speed of sound (352.35 K, 4000 kPa): 1050.4 ± 11 m/s
speed of sound (352.41 K, 5530 kPa): 1061 ± 11 m/s
speed of sound (352.42 K, 7020 kPa): 1068.2 ± 11 m/s
speed of sound (352.43 K, 8490 kPa): 1080.4 ± 11 m/s
speed of sound (352.73 K, 10060 kPa): 1093.6 ± 11 m/s
speed of sound (353.08 K): 1010 ± 10 m/s
speed of sound (362.56 K, 100 kPa): 982.46 ± 9.9 m/s
speed of sound (362.56 K, 1000 kPa): 987.04 ± 9.9 m/s
speed of sound (362.56 K, 4010 kPa): 1015.1 ± 10 m/s
speed of sound (362.58 K, 8530 kPa): 1045.7 ± 11 m/s
speed of sound (362.6 K, 7060 kPa): 1033.4 ± 10 m/s
speed of sound (362.62 K, 5540 kPa): 1026 ± 10 m/s
speed of sound (362.64 K, 2530 kPa): 1000.9 ± 10 m/s
speed of sound (362.68 K, 10100 kPa): 1061.2 ± 11 m/s
speed of sound (363.12 K): 975 ± 9.8 m/s
speed of sound (372.53 K, 2500 kPa): 968.37 ± 9.7 m/s
speed of sound (372.54 K, 100 kPa): 947.78 ± 9.5 m/s
speed of sound (372.54 K, 1040 kPa): 952.55 ± 9.6 m/s
speed of sound (372.55 K, 7020 kPa): 1007.7 ± 10 m/s
speed of sound (372.56 K, 8530 kPa): 1016.3 ± 10 m/s
speed of sound (372.57 K, 5560 kPa): 998.43 ± 10 m/s
speed of sound (372.59 K, 4050 kPa): 985.39 ± 9.9 m/s
speed of sound (372.86 K, 9900 kPa): 1029.5 ± 10 m/s
speed of sound (373.14 K): 942 ± 9.5 m/s
speed of sound (382.71 K, 8540 kPa): 980 ± 9.9 m/s
speed of sound (382.73 K, 7020 kPa): 971.25 ± 9.8 m/s
speed of sound (382.74 K, 100 kPa): 913.07 ± 9.2 m/s
speed of sound (382.74 K, 1000 kPa): 922.72 ± 9.3 m/s
speed of sound (382.74 K, 5540 kPa): 962.72 ± 9.7 m/s
speed of sound (382.75 K, 4010 kPa): 952.21 ± 9.6 m/s
speed of sound (382.76 K, 2560 kPa): 934.6 ± 9.4 m/s
speed of sound (382.91 K, 9900 kPa): 997.44 ± 10 m/s
speed of sound (383.76 K): 905.4 ± 9.1 m/s
speed of sound (392.4 K, 5520 kPa): 933.47 ± 9.4 m/s
speed of sound (392.41 K, 7010 kPa): 940.67 ± 9.5 m/s
speed of sound (392.42 K, 8480 kPa): 949.6 ± 9.6 m/s
speed of sound (392.47 K, 100 kPa): 878.33 ± 8.8 m/s
speed of sound (392.47 K, 1030 kPa): 884.09 ± 8.9 m/s
speed of sound (392.47 K, 4000 kPa): 919.08 ± 9.2 m/s
speed of sound (392.51 K, 2490 kPa): 902.62 ± 9.1 m/s
speed of sound (392.92 K, 9950 kPa): 966.97 ± 9.8 m/s
speed of sound (393.3 K): 870.1 ± 8.8 m/s
speed of sound (402 K, 6970 kPa): 908.77 ± 9.2 m/s
speed of sound (402.03 K, 100 kPa): 843.55 ± 8.5 m/s
speed of sound (402.03 K, 1040 kPa): 854.91 ± 8.6 m/s
speed of sound (402.06 K, 2470 kPa): 868.02 ± 8.7 m/s
speed of sound (402.06 K, 4030 kPa): 883.34 ± 8.9 m/s
speed of sound (402.08 K, 8510 kPa): 919.03 ± 9.3 m/s
speed of sound (402.1 K, 5510 kPa): 899.47 ± 9.1 m/s
speed of sound (402.64 K): 834.9 ± 8.4 m/s
speed of sound (402.68 K, 10070 kPa): 936.79 ± 9.4 m/s
speed of sound (412.72 K, 100 kPa): 808.74 ± 8.2 m/s
speed of sound (412.72 K, 1040 kPa): 815.66 ± 8.2 m/s
speed of sound (412.8 K, 2570 kPa): 833.03 ± 8.4 m/s
speed of sound (412.88 K, 5600 kPa): 865.88 ± 8.7 m/s
speed of sound (412.88 K, 7020 kPa): 871.35 ± 8.8 m/s
speed of sound (412.89 K, 8470 kPa): 886.33 ± 8.9 m/s
speed of sound (412.91 K, 4020 kPa): 848.61 ± 8.6 m/s
speed of sound (412.99 K, 10030 kPa): 903.23 ± 9.1 m/s
speed of sound (413.59 K): 800.8 ± 8.1 m/s
speed of sound (423.69 K, 9950 kPa): 868.97 ± 8.8 m/s
speed of sound (423.96 K): 764 ± 7.7 m/s
speed of sound (423.99 K, 8470 kPa): 850.59 ± 8.6 m/s
speed of sound (424.01 K, 6980 kPa): 840.66 ± 8.5 m/s
speed of sound (424.04 K, 5530 kPa): 826.28 ± 8.3 m/s
speed of sound (424.11 K, 2540 kPa): 796.64 ± 8 m/s
speed of sound (424.11 K, 4010 kPa): 811.39 ± 8.2 m/s
speed of sound (424.14 K, 100 kPa): 773.9 ± 7.8 m/s
speed of sound (424.14 K, 1010 kPa): 774.99 ± 7.8 m/s
speed of sound (432.74 K, 8510 kPa): 826.01 ± 8.3 m/s
speed of sound (432.77 K, 7030 kPa): 813.37 ± 8.2 m/s
speed of sound (432.78 K, 5380 kPa): 798.35 ± 8.1 m/s
speed of sound (432.84 K, 9890 kPa): 842.12 ± 8.5 m/s
speed of sound (432.92 K, 3990 kPa): 780.75 ± 7.9 m/s
speed of sound (433.17 K, 100 kPa): 739.02 ± 7.5 m/s
speed of sound (433.17 K, 1030 kPa): 746.97 ± 7.5 m/s
speed of sound (433.17 K, 2510 kPa): 762.64 ± 7.7 m/s
speed of sound (433.99 K): 730.3 ± 7.4 m/s
speed of sound (442.85 K, 5610 kPa): 765.41 ± 7.7 m/s
speed of sound (442.88 K, 4100 kPa): 748.87 ± 7.6 m/s
speed of sound (442.9 K, 930 kPa): 715.97 ± 7.2 m/s
speed of sound (442.9 K, 2480 kPa): 729.4 ± 7.4 m/s
speed of sound (442.91 K, 6990 kPa): 777.33 ± 7.9 m/s
speed of sound (442.92 K, 8480 kPa): 791.24 ± 8 m/s
speed of sound (443.55 K): 697.6 ± 7 m/s
speed of sound (452.58 K, 5540 kPa): 735.89 ± 7.5 m/s
speed of sound (452.61 K, 7110 kPa): 747.91 ± 7.6 m/s
speed of sound (452.63 K, 8380 kPa): 764.36 ± 7.7 m/s
speed of sound (452.65 K, 4080 kPa): 717.86 ± 7.3 m/s
speed of sound (452.9 K): 661 ± 6.7 m/s
speed of sound (452.91 K, 2540 kPa): 695.59 ± 7 m/s
speed of sound (452.92 K, 1040 kPa): 677.79 ± 6.9 m/s
speed of sound (452.93 K, 10000 kPa): 781.61 ± 7.9 m/s
speed of sound (462.7 K, 7080 kPa): 715.1 ± 7.2 m/s
speed of sound (462.71 K, 4130 kPa): 682.75 ± 6.9 m/s
speed of sound (462.71 K, 8400 kPa): 730.25 ± 7.4 m/s
speed of sound (462.72 K, 5530 kPa): 700.28 ± 7.1 m/s
speed of sound (462.73 K, 2510 kPa): 660.98 ± 6.7 m/s
speed of sound (462.91 K, 10060 kPa): 751.22 ± 7.6 m/s
speed of sound (462.97 K, 960 kPa): 644.49 ± 6.5 m/s
speed of sound (463.1 K): 628.8 ± 6.4 m/s
speed of sound (471.93 K, 7050 kPa): 686.17 ± 7 m/s
speed of sound (471.94 K, 5520 kPa): 670.94 ± 6.8 m/s
speed of sound (471.95 K, 8260 kPa): 703.27 ± 7.1 m/s
speed of sound (472.03 K, 3960 kPa): 653.08 ± 6.6 m/s
speed of sound (472.05 K, 10050 kPa): 723.5 ± 7.3 m/s
speed of sound (472.29 K, 2600 kPa): 630.72 ± 6.4 m/s
speed of sound (472.41 K, 950 kPa): 612.74 ± 6.2 m/s
speed of sound (473.82 K): 592.4 ± 6 m/s
